ChEMBL document CHEMBL2074275, “Characterization of inducible nature of MRP3 in rat liver” (Am J Physiol Gastrointest Liver Physiol, 2000)

Key:
Assay type in all cases: functional, organism-based, Sprague-Dawley
[1] = target: T1, ATP-binding cassette sub-family C member 3 (Rattus norvegicus, UniProt O88563); assay: TP_TRANSPORTER: Western in vivo SD rat, liver
[2] = target: T1, ATP-binding cassette sub-family C member 3; assay: (§1) TP_TRANSPORTER: Northern blot in vivo SD rat, liver
[3] = target: ATP-binding cassette sub-family C member 6 (Rattus norvegicus, UniProt O88269); assay: as §1
[4] = target: T2, Hepatic sodium/bile acid cotransporter (Rattus norvegicus, UniProt P26435); assay: as §1
T2 sequence (P26435 whole entry): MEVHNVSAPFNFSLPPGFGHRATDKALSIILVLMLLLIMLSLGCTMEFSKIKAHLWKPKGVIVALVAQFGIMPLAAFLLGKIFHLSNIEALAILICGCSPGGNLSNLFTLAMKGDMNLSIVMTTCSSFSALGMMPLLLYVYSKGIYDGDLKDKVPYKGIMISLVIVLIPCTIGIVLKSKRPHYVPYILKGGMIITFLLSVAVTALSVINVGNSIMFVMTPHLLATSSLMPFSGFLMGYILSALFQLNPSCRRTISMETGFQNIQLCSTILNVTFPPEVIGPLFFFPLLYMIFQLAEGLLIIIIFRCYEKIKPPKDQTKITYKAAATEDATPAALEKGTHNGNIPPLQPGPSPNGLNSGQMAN

Measured: Activity

T1 sequence (O88563 whole entry): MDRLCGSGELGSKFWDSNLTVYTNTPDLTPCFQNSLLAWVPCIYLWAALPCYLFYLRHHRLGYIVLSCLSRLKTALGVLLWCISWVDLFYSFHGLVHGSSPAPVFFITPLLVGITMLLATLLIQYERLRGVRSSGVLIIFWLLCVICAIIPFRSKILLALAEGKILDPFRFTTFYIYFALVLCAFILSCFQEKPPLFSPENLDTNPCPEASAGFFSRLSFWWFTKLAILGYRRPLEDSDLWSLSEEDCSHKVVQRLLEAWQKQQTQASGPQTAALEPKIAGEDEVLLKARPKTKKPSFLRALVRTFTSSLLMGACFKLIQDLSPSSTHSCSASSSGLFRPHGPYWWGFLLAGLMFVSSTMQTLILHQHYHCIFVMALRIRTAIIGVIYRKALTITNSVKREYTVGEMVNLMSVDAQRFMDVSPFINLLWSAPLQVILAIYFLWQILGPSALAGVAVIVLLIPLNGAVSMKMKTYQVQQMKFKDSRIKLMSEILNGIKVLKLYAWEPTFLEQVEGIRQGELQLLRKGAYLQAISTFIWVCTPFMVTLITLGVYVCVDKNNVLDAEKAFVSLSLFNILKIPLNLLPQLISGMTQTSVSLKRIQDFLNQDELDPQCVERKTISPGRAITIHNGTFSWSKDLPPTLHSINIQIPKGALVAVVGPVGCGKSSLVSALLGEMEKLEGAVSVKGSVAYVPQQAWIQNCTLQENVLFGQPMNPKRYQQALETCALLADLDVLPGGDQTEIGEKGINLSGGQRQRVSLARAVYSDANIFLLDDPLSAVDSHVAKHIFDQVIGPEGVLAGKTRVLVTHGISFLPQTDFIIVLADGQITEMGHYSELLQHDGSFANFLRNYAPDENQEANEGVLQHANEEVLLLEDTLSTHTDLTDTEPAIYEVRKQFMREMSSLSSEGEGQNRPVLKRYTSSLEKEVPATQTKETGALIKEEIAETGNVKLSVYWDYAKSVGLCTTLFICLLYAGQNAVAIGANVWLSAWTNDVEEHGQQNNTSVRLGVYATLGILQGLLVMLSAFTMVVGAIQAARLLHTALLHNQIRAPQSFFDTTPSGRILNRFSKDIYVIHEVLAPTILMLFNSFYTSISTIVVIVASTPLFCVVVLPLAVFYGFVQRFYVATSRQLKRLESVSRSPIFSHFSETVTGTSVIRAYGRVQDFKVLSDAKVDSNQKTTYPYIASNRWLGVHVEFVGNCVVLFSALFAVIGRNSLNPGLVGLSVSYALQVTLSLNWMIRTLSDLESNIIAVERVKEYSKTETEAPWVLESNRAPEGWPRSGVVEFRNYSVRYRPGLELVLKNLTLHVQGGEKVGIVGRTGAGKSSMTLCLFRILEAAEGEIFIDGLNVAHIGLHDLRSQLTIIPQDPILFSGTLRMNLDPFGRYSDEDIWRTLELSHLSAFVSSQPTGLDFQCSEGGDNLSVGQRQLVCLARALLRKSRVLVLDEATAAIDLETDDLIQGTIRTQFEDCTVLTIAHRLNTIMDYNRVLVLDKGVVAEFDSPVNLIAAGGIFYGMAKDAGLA
ATP-binding cassette sub-family C member 6, sequence (O88269 whole entry): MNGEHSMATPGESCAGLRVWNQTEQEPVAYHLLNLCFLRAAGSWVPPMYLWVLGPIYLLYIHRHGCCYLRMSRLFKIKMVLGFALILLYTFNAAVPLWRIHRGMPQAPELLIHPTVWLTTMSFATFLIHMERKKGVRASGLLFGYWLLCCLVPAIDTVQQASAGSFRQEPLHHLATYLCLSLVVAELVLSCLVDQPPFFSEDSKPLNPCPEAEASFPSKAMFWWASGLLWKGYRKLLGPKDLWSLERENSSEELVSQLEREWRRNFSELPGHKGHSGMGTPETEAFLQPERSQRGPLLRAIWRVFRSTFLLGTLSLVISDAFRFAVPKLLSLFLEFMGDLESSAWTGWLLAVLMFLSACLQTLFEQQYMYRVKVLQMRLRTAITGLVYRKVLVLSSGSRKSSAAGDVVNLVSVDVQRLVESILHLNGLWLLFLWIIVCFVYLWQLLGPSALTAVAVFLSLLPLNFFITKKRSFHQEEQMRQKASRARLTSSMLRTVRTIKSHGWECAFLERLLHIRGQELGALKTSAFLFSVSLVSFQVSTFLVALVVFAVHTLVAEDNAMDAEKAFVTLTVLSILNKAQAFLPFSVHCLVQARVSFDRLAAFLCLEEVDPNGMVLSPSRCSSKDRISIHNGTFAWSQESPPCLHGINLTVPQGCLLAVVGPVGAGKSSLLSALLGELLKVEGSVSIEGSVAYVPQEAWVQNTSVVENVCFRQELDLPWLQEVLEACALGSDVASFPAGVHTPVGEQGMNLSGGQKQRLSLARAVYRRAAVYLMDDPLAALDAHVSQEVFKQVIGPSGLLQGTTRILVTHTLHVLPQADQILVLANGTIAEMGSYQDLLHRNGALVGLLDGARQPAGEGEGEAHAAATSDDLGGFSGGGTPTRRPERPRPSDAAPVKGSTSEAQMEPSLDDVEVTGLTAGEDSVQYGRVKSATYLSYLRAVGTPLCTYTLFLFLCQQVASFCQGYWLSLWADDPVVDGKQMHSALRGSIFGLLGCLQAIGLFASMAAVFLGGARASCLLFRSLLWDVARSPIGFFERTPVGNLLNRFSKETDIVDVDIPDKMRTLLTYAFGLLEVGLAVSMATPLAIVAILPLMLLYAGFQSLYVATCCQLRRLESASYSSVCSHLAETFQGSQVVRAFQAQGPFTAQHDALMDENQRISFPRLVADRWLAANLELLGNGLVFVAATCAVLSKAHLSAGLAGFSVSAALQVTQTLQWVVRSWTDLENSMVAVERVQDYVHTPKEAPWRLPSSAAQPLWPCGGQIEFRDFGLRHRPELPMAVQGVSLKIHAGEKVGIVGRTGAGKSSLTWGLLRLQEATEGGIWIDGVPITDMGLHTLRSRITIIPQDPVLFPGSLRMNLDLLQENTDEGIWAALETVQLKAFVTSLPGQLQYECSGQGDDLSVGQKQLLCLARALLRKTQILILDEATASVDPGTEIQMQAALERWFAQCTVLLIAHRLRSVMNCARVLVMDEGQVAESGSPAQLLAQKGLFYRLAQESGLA

CCC1(c2ccccc2)C(=O)NC(=O)NC1=O [PHENOBARBITAL]
inducer [+]: all assays above

O=C=Nc1cccc2ccccc12 [alpha-naphthylisocyanate]
inducer [+]: all assays above
